The target in one experiment is T1, Potassium/sodium hyperpolarization-activated cyclic nucleotide-gated channel 4 (Homo sapiens) (UniProt Q9Y3Q4).
T1 sequence (whole entry): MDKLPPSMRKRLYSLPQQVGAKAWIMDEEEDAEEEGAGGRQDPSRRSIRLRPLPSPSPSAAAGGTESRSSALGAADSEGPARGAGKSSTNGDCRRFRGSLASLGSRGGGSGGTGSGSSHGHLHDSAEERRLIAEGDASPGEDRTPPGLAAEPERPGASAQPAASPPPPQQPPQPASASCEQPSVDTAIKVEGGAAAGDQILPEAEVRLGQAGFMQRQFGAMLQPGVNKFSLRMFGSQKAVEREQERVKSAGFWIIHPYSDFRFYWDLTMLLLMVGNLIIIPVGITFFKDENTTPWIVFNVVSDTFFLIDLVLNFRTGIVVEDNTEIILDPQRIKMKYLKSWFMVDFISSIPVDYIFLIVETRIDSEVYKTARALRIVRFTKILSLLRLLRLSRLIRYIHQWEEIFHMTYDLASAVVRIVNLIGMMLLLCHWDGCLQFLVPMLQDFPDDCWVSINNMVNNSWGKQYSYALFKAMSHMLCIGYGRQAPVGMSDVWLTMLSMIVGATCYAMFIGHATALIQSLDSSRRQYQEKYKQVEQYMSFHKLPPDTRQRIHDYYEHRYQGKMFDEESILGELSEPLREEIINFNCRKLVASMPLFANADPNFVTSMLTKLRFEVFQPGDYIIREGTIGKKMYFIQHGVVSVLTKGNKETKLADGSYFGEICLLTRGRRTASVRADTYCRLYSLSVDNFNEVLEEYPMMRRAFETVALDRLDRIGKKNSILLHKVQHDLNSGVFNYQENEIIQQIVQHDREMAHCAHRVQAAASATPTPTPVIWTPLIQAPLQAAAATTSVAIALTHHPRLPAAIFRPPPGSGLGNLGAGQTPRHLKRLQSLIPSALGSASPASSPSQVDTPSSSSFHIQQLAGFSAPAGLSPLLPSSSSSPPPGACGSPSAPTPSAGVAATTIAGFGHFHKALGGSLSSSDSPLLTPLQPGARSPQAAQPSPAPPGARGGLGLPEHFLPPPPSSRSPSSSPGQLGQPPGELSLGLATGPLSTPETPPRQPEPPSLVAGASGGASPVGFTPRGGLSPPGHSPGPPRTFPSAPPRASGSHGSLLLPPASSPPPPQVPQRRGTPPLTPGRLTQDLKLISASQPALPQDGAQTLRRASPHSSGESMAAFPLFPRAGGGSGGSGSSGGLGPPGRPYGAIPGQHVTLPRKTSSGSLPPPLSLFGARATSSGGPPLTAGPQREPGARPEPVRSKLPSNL
Briefly: Inhibition of human HCN4 expressed in HEK293 cells assessed as reduction in hyperpolarization activated current at 5 uM at holding potential of -80 mV by patch clamp assay relative to control. The format is cell-based. A general note: The patch-clamp technique gives a direct electrical read-out from membranes.
Consider `COc1ccc(CCN(C)[C@@H]2CC=C[C@H](N3C=Cc4cc(OC)c(OC)cc4CC3=O)C2)cc1OC`, for which the inhibition came to 30%.
On the same count and under the same terms, to `COc1ccc(CN(Cc2ccc(OC)c(OC)c2)[C@@H]2CCC[C@H](N3CCc4cc(OC)c(OC)cc4CC3=O)C2)cc1OC` belongs 4%.
On to `COc1ccc(OCCN(C)[C@@H]2CCC[C@H](N3CCc4cc(OC)c(OC)cc4CC3=O)C2)cc1OC`, for which the inhibition was found to be 48%.
Still for that read-out and setting: to `COc1ccc(/C=C/CN(C)[C@@H]2CCC[C@H](N3CCc4cc(OC)c(OC)cc4CC3=O)C2)cc1OC` (relative stereo) belongs 64%; to `COc1ccc(CCCN(C)[C@@H]2CCC[C@H](N3CCc4cc(OC)c(OC)cc4CC3=O)C2)cc1OC` (relative stereo), 47%.
Regarding `COc1ccc(CN(C)[C@@H]2CCC[C@H](N3CCc4cc(OC)c(OC)cc4CC3=O)C2)cc1OC` (relative stereo), the inhibition is 21%.
`COc1ccc(CCN(C)C2CCCC(N3CCc4cc(OC)c(OC)cc4CC3=O)C2)cc1OC` (single isomer, unassigned; (+)): the inhibition worked out at 46%.
In the case of `COc1ccc(CCN(C)C2CCCC(N3CCc4cc(OC)c(OC)cc4CC3=O)C2)cc1OC` (single isomer, unassigned; (-)), the inhibition stood at 45%.

The next experiment addresses T1, Potassium/sodium hyperpolarization-activated cyclic nucleotide-gated channel 4 (Homo sapiens). Description: Inhibition of human HCN4 expressed in HEK293 cells assessed as reduction in hyperpolarization activated current at 10 uM at holding potential of -80 mV by patch clamp assay relative to control. The format is cell-based.
`COc1ccc(CCN(C)CCCN2CCc3cc(OC)c(OC)cc3CC2=O)cc1OC`: the inhibition is 59%.

What is called inhibition is the drop in the measured response relative to a control, in per cent.

Values taken from ChEMBL document CHEMBL4433219, “EC18 as a Tool To Understand the Role of HCN4 Channels in Mediating Hyperpolarization-Activated Current in Tissues” (ACS Med Chem Lett, 2019).
